Laboratory results as given in patent US11548870B2, “Compounds useful as inhibitors of helios protein” (Bristol-Myers Squibb Company, priority 2019, dated 2023).

Assays:
[1] = biological target: T1, Helios (Homo sapiens, UniProt Q96SW2+Q9UKS7); assay: Helios Cellular Degradation Assay (flow cytometry, Helios-PE antibody staining, 72 h); type: cell-based; conditions: Jurkat cells, 72 h incubation, flow cytometry; for Dmax: Jurkat, read-out: Helios Dmax
T1 construct: fluorescently labelled antibodies against Helios and Ikaros; endogenous in cells; host or cells: Jurkat cells
T1 sequence (Q9UKS7 whole entry): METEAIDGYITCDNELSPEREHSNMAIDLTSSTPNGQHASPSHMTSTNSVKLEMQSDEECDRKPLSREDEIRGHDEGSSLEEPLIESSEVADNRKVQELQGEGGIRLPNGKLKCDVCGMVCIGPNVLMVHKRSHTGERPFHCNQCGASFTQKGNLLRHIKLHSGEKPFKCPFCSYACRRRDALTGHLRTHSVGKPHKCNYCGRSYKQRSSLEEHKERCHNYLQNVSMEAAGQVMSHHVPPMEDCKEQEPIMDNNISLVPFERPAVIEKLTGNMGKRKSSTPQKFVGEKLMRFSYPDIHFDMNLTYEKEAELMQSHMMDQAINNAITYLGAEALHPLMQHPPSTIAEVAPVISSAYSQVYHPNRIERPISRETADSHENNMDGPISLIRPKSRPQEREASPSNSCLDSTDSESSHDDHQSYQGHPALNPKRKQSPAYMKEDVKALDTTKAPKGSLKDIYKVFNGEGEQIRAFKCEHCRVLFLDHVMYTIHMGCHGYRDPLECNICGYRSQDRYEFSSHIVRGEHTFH
T1 sequence (Q96SW2 whole entry): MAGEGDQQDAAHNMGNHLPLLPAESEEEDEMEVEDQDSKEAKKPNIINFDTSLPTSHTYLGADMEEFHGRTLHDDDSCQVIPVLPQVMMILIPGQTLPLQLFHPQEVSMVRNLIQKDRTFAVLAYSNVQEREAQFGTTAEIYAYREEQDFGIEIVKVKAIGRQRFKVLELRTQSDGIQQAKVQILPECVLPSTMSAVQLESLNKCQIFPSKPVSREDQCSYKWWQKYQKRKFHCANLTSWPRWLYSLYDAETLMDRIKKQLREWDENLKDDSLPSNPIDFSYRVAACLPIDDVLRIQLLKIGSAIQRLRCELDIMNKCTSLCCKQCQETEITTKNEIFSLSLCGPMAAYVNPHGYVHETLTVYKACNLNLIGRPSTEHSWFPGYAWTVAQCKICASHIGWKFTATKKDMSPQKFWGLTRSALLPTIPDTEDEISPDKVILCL
T1 sequence (Q16531 whole entry partner): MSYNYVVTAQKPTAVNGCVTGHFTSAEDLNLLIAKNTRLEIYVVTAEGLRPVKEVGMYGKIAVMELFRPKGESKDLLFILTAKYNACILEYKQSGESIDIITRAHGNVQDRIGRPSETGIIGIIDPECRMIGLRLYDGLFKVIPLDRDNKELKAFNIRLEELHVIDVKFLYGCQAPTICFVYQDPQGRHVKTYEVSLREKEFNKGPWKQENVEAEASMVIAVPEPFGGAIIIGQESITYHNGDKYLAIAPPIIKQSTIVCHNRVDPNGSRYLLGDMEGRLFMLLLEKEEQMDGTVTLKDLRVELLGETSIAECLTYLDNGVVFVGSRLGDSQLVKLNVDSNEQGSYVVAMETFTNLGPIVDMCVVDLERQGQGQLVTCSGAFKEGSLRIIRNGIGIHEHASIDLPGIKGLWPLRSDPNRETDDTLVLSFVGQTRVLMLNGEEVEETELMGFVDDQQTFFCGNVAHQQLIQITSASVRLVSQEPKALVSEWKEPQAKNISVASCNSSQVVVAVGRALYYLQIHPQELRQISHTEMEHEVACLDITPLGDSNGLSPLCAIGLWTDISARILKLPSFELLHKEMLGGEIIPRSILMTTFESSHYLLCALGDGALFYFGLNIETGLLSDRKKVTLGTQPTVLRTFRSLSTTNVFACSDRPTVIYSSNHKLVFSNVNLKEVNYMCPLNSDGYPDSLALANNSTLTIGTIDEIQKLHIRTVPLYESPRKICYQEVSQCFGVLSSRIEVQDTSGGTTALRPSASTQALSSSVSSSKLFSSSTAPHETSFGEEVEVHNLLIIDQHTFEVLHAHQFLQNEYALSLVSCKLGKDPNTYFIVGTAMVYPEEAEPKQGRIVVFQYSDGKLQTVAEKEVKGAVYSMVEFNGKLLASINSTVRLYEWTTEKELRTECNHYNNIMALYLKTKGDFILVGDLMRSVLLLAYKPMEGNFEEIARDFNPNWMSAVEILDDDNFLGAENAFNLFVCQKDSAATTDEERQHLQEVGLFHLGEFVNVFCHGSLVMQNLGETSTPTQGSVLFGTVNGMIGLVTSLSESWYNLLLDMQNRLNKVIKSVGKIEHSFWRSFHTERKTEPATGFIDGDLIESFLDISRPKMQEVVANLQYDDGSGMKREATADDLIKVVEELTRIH
Outline: (§1)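 Flow cytometry of fixed, permeabilized Jurkat cells stained with anti-Helios-PE and anti-Ikaros-Alexa488 (1 h, room temperature) measured remaining protein. Treatment lasted 72 h at 37 °C, 5% CO2, at 80,000 cells/well in RPMI with 10% FBS.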

[2] = biological target: T2, Ikaros (Homo sapiens, UniProt Q13422); assay: Helios Cellular Degradation Assay, Ikaros readout (flow cytometry, Ikaros-Alexa488 antibody staining, 72 h); type: cell-based; conditions: Jurkat cells, 72 h incubation, flow cytometry; for Dmax: Jurkat, read-out: Ikaros Dmax
T2 construct: fluorescently labelled antibodies against Helios and Ikaros; endogenous in cells; host or cells: Jurkat cells
T2 sequence (Q96SW2 whole entry partner): as the sequence (Q96SW2 whole entry) above
T2 sequence (Q16531 whole entry partner): as the sequence (Q16531 whole entry partner) above
T2 sequence (Q13422 whole entry): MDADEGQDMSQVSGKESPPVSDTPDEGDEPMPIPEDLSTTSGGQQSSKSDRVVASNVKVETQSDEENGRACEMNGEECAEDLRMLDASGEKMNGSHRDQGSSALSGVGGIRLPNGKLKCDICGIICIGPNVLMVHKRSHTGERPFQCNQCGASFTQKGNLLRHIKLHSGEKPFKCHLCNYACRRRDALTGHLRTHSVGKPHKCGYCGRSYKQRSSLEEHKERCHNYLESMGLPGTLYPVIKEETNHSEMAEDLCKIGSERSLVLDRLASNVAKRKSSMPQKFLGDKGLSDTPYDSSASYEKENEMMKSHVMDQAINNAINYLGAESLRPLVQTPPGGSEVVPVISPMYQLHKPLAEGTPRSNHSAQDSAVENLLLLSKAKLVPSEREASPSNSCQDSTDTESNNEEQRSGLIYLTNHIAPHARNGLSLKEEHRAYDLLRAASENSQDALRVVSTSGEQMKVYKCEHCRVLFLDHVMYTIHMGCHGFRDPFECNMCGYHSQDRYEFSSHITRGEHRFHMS
Outline: as §1

SMILES | DC50 [1] | Dmax [1] | DC50 [2] | Dmax [2] | Helios Dmax [1] | Ikaros Dmax [2]
O=C1CCC(N2Cc3cc(-c4cc(CNCCc5ccccc5Cl)ccn4)ccc3C2=O)C(=O)N1 (stereo not drawn) [Example 93, 3-(5-(4-(((2-chlorophenethyl)amino)methyl)pyridin-2-yl)-1-oxoisoindolin-2-yl)piperidine-2,6-dione] | 9 nM | 103% | > 10000 nM | 23% |  | 
O=C1CCC(N2Cc3cc(-c4cc(CNCCc5ccc(Cl)cc5)ccn4)ccc3C2=O)C(=O)N1 (stereo not drawn) [Example 94, 3-(5-(4-(((4-chlorophenethyl)amino)methyl)pyridin-2-yl)-1-oxoisoindolin-2-yl)piperidine-2,6-dione] | 35 nM | 74% | > 10000 nM | 11% |  | 
COc1ccc(CCNCc2ccnc(-c3ccc4c(c3)CN(C3CCC(=O)NC3=O)C4=O)c2)cc1 (stereo not drawn) [Example 95, 3-(5-(4-(((4-methoxyphenethyl)amino)methyl)pyridin-2-yl)-1-oxoisoindolin-2-yl)piperidine-2,6-dione] | 34 nM | 94% | > 10000 nM | 17% |  | 
O=C1CCC(N2Cc3cc(-c4cc(CNCCc5ccc(O)cc5)ccn4)ccc3C2=O)C(=O)N1 (stereo not drawn) [Example 96, 3-(5-(4-(((4-hydroxyphenethyl)amino)methyl)pyridin-2-yl)-1-oxoisoindolin-2-yl) piperidine-2,6-dione] | 19 nM | 94% | > 10000 nM | 25% |  | 
O=C1CCC(N2Cc3cc(-c4cc(CNCCCc5ccccc5)ccn4)ccc3C2=O)C(=O)N1 (stereo not drawn) [Example 98, 3-(1-oxo-5-(4-(((3-phenylpropyl)amino)methyl)pyridin-2-yl)isoindolin-2-yl)piperidine-2,6-dione] | 6 nM | 91% | > 10000 nM | 8% |  | 
O=C1CCC(N2Cc3cc(-c4cc(CNCCc5cccc(Cl)c5)ccn4)ccc3C2=O)C(=O)N1 (stereo not drawn) [Example 102, 3-(5-(4-(((3-chlorophenethyl)amino)methyl)pyridin-2-yl)-1-oxoisoindolin-2-yl)piperidine-2,6-dione] | 11 nM | 97% | > 10000 nM | 10% |  | 
O=C1CCC(N2Cc3cc(-c4cc(CNCCOc5ccccc5)ccn4)ccc3C2=O)C(=O)N1 (stereo not drawn) [Example 103, 3-(1-oxo-5-(4-(((2-phenoxyethyl)amino)methyl)pyridin-2-yl)isoindolin-2-yl)piperidine-2,6-dione] | 36 nM | 95% | > 10000 nM | 1% |  | 
O=C1CCC(N2Cc3cc(-c4cc(CNCCc5nc6ccccc6s5)ccn4)ccc3C2=O)C(=O)N1 (stereo not drawn) [Example 106, 3-(5-(4-(((2-(benzo[d]thiazol-2-yl)ethyl)amino)methyl)pyridin-2-yl)-1-oxoisoindolin-2-yl)piperidine-2,6-dione] | 72 nM | 79% | > 10000 nM | 12% |  | 
O=C1CCC(N2Cc3cc(-c4cc(CNCc5csc(-c6ccccc6)n5)ccn4)ccc3C2=O)C(=O)N1 (stereo not drawn) [Example 110, 3-(1-oxo-5-(4-((((2-phenylthiazol-4-yl)methyl)amino)methyl)pyridin-2-yl)isoindolin-2-yl)piperidine-2,6-dione] | 48 nM | 71% | > 10000 nM | 7% |  | 
O=C1CCC(N2Cc3cc(-c4cc(CNCCCn5ccnc5)ccn4)ccc3C2=O)C(=O)N1 (stereo not drawn) [Example 113, 3-(5-(4-(((3-(1H-imidazol-1-yl)propyl)amino)methyl)pyridin-2-yl)-1-oxoisoindolin-2-yl)piperidine-2,6-dione] | 287 nM | 81% | > 10000 nM | 8% |  | 
O=C1CCC(N2Cc3cc(-c4cc(CNCCCN5CCOCC5)ccn4)ccc3C2=O)C(=O)N1 (stereo not drawn) [Example 114, 3-(5-(4-(((3-morpholinopropyl)amino)methyl)pyridin-2-yl)-1-oxoisoindolin-2-yl)piperidine-2,6-dione] | 63 nM | 83% | > 10000 nM | 2% |  | 

The remaining lines, values ahead:

DC50 [1] | Dmax [1] | DC50 [2] | Dmax [2] | Helios Dmax [1] | Ikaros Dmax [2] | SMILES
209 nM | 92% | > 10000 nM | 11% |  |  | O=C1CCC(N2Cc3cc(-c4cc(CNCCO)ccn4)ccc3C2=O)C(=O)N1 (stereo not drawn) [Example 92, 3-(5-(4-(((2-hydroxyethyl)amino)methyl)pyridin-2-yl)-1-oxoisoindolin-2-yl) piperidine-2,6-dione]
8 nM | 90% | > 10000 nM | 11% |  |  | CC(C)CCNCc1ccnc(-c2ccc3c(c2)CN(C2CCC(=O)NC2=O)C3=O)c1 (stereo not drawn) [Example 97, 3-(5-(4-((isopentylamino)methyl)pyridin-2-yl)-1-oxoisoindolin-2-yl)piperidine-2,6-dione]
419 nM | 65% | > 10000 nM | 6% |  |  | N#CCNCc1ccnc(-c2ccc3c(c2)CN(C2CCC(=O)NC2=O)C3=O)c1 (stereo not drawn) [Example 99, 2-(((2-(2-(2,6-dioxopiperidin-3-yl)-1-oxoisoindolin-5-yl)pyridin-4-yl)methyl)amino)acetonitrile]
6130 nM |  | > 10000 nM |  | 55% | 6% | NC(=O)CNCc1ccnc(-c2ccc3c(c2)CN(C2CCC(=O)NC2=O)C3=O)c1 (stereo not drawn) [Example 100, 2-(((2-(2-(2,6-dioxopiperidin-3-yl)-1-oxoisoindolin-5-yl)pyridin-4-yl)methyl)amino) acetamide]
59 nM | 89% | > 10000 nM | 22% |  |  | O=C1CCC(N2Cc3cc(-c4cc(CNC5CCC(O)CC5)ccn4)ccc3C2=O)C(=O)N1 (stereo not drawn) [Example 101, 3-(5-(4-(((4-hydroxycyclohexyl)amino)methyl)pyridin-2-yl)-1-oxoisoindolin-2-yl)piperidine-2,6-dione]
> 10000 nM | 44% | > 10000 nM | 1% |  |  | O=C1CCC(N2Cc3cc(-c4cc(CNC5CCN(Cc6ccccc6)C5)ccn4)ccc3C2=O)C(=O)N1 (stereo not drawn) [Example 104, 3-(5-(4-(((1-benzylpyrrolidin-3-yl)amino)methyl)pyridin-2-yl)-1-oxoisoindolin-2-yl) piperidine-2,6-dione]
264 nM | 79% | > 10000 nM | 5% |  |  | NC(=O)CCNCc1ccnc(-c2ccc3c(c2)CN(C2CCC(=O)NC2=O)C3=O)c1 (stereo not drawn) [Example 105, 3-(((2-(2-(2,6-dioxopiperidin-3-yl)-1-oxoisoindolin-5-yl)pyridin-4-yl)methyl)amino)propanamide]
494 nM | 80% | > 10000 nM | 15% |  |  | CN(C)C1CCC(NCc2ccnc(-c3ccc4c(c3)CN(C3CCC(=O)NC3=O)C4=O)c2)CC1 (stereo not drawn) [Example 107, 3-(5-(4-(((4-(dimethylamino)cyclohexyl)amino)methyl)pyridin-2-yl)-1-oxoisoindolin-2-yl) piperidine-2,6-dione]
45 nM | 84% | > 10000 nM | 15% |  |  | O=C1CCC(N2Cc3cc(-c4cc(CNC5CCC5)ccn4)ccc3C2=O)C(=O)N1 (stereo not drawn) [Example 108, 3-(5-(4-((cyclobutylamino)methyl)pyridin-2-yl)-1-oxoisoindolin-2-yl)piperidine-2,6-dione]
48 nM | 75% | > 10000 nM | 15% |  |  | O=C1CCC(N2Cc3cc(-c4cc(CNC5CC5)ccn4)ccc3C2=O)C(=O)N1 (stereo not drawn) [Example 109, 3-(5-(4-((cyclopropylamino)methyl)pyridin-2-yl)-1-oxoisoindolin-2-yl)piperidine-2,6-dione]
137 nM | 75% | > 10000 nM | 10% |  |  | O=C1CCC(N2Cc3cc(-c4cc(CN[C@@H]5C[C@H]5c5ccccc5)ccn4)ccc3C2=O)C(=O)N1 (stereo partly drawn) [Example 111, 3-(1-oxo-5-(4-((((1R,2S)-2-phenylcyclopropyl)amino)methyl)pyridin-2-yl)isoindolin-2-yl)piperidine-2,6-dione]
921 nM | 74% | > 10000 nM | 2% |  |  | COC(=O)CCNCc1ccnc(-c2ccc3c(c2)CN(C2CCC(=O)NC2=O)C3=O)c1 (stereo not drawn) [Example 112, methyl 3-(((2-(2-(2,6-dioxopiperidin-3-yl)-1-oxoisoindolin-5-yl)pyridin-4-yl)methyl)amino)propanoate]
528 nM | 78% | > 10000 nM | 6% |  |  | O=C1CCC(N2Cc3cc(-c4cc(CNCCCN5CCCC5=O)ccn4)ccc3C2=O)C(=O)N1 (stereo not drawn) [Example 115, 3-(1-oxo-5-(4-(((3-(2-oxopyrrolidin-1-yl)propyl)amino)methyl)pyridin-2-yl)isoindolin-2-yl)piperidine-2,6-dione]
25 nM | 88% | > 10000 nM | 12% |  |  | CCNCc1ccnc(-c2ccc3c(c2)CN(C2CCC(=O)NC2=O)C3=O)c1 (stereo not drawn) [Example 116, 3-(5-(4-((ethylamino)methyl)pyridin-2-yl)-1-oxoisoindolin-2-yl)piperidine-2,6-dione]
53 nM | 77% | > 10000 nM | 3% |  |  | CC1(C)CCCN1Cc1ccnc(-c2ccc3c(c2)CN(C2CCC(=O)NC2=O)C3=O)c1 (stereo not drawn) [Example 117, 3-(5-(4-((2,2-dimethylpyrrolidin-1-yl)methyl)pyridin-2-yl)-1-oxoisoindolin-2-yl)piperidine-2,6-dione]
11 nM | 90% | > 10000 nM | 12% |  |  | CC1(C)CCN(Cc2ccnc(-c3ccc4c(c3)CN(C3CCC(=O)NC3=O)C4=O)c2)C1 (stereo not drawn) [Example 118, 3-(5-(4-((3,3-dimethylpyrrolidin-1-yl)methyl)pyridin-2-yl)-1-oxoisoindolin-2-yl)piperidine-2,6-dione]
